Common to all, as to assay type: in vivo, mouse
For one series, the system named is sEH. Nature of the series: Western blot of sEH in brain regions after maternal glyphosate exposure. From the text:
Collection of blood and brain samples and oxylipin analysis. Water or 0.095% glyphosate was given to pregnant mice from E5 to P21, as described above. The male offspring were separated from their mothers at weaning (P21). At juvenile (P28) stage, mice were deeply anesthetized with isoflurane and plasma was collected. Subsequently, brains were removed from the skulls. For Western blot analysis, brain regions such as prefrontal cortex (PFC), hippocampus, and striatum, were dissected from brain on ice. The samples were stored at −80° C. before assay. For oxylipin analysis, plasma was collected after isoflurane anesthesia at juvenile (P28) stage. Subsequently, PFC, hippocampus, and striatum were dissected from brain on ice, and the samples were stored at −80° C. before assay. […]
Western blot analysis. […] 50 μg of protein were measured using the DC protein assay kit (Bio-Rad), and incubated for 5 min at 95° C., with an equal volume of 125 mM Tris-HCl, pH6.8, 20% glycerol, 0.1% bromophenol blue, 10% β-mercaptoethanol, 4% sodium dodecyl sulfate, and subjected to sodium dodecyl sulfate polyacrylamide gel electrophoresis, using 7.5% or AnyKD mini-gels (Mini-PROTEAN® TGX™ Precast Gel; Bio-Rad, CA, USA). […] After final three washes with TBST, bands were detected using enhanced chemiluminescence (ECL) prime Western Blotting Detection system (GE Healthcare Bioscience). […]
For orientation: A western blot detects proteins with antibodies after separation by electrophoresis.

Another series deals with parvalbumin (PV). Nature of the series: PV-immunohistochemistry in mPFC after maternal glyphosate exposure. The settings on record: juvenile offspring of maternal glyphosate exposure vs water treated group. The procedure:
PV-immunohistochemistry. Immunohistochemistry of PV was performed as reported previously (7,13,16,17). Mice were anesthetized with 5% isoflurane and sodium pentobarbital (50 mg/kg), and perfused transcardially with 10 mL of saline, followed by 30 mL of ice-cold 4% paraformaldehyde in 0.1M phosphate buffer (pH 7.4). Brains were removed from the skulls and post fixed overnight at 4° C. in the same fixative. For the immunohistochemical analysis, 50 μm-thick serial, coronal sections of brain tissue were cut in ice-cold 0.01M phosphate buffered saline (pH 7.4) using a vibrating blade microtome (VT1000s, Leica Microsystems, Tokyo, Japan). Mounted on gelatinized slides brain sections were washed by PBS for three times and then blocked in PBS containing 0.3% Triton X-100 (PBST) and 3% normal serum for 1 h at room temperature. The samples were then incubated for 24 h at 4° C. with […] polyclonal anti-parvalbumin (PV) antibody (1:100, abcam, ab11427) in PBST with 1% normal serum. After that the sections were washed three times in PBS and then incubated for 2 h in room temperature with Alexa Fluor 488 Polyclonal Antibody (1:1000, Invitrogen, A11094). […] The PV-immunofluorescent-positive cells in the inflalimbic (IL) and prelimbic (PrL) regions (0.05 mm^2) of mPFC was analyzed using a fluorescence microscope with a CCD camera (Olympus IX70, Tokyo, Japan) and the SCION IMAGE software package. […]

In a further series the test system is ddY mice. Nature of the series: Three-chamber social interaction test, offspring after maternal glyphosate exposure. The conditions noted are these: juvenile offspring, maternal 0.095% glyphosate vs water treated group. Here is the method:
Treatment of TPPU. TPPU was dissolved in polyethylene glycol 400 (PEG 400: Tokyo Chemical Industry Co., Ltd, Tokyo, Japan). TPPU (3 mg/kg/day) or vehicle (5 ml/kg, PEG 400) was administered orally in the pregnant mice from E5 to P21. Behavioral tests of offspring were performed during juvenile stage (P28-P35) after maternal glyphosate exposure (FIG. 1A).
Three-chamber Social Interaction Test: The three-chamber social interaction test was performed to investigate sociability and preference for social novelty in mice, as reported previously (7). The apparatus consisted of a rectangular, three-chambered box and a lid with a video camera (BrainScience Idea, Co., Ltd, Osaka, Japan). Each chamber (20 cm×40 cm×20 cm) was divided by a clear plastic wall with a small square opening (5 cm×8 cm). First, each subject mouse was placed in the box and allowed to explore for 10 min to habituate the environment. During the session, an empty wire cage (10 cm in diameter, 17.5 cm in height, with vertical bars 0.3 cm apart) was located in the center of left and right chamber. Next, an unfamiliar ddY male mouse (stranger 1) that had no prior contact with the subject mouse was put into a wire cage that was placed into one of the side chambers. […] The time spent in each chamber and the time spent around each cage was recorded on video.

A short description of series [1]: Measurement of glyphosate in the blood (LC/MS/MS). The conditions noted are these: mothers treated with 0.095% glyphosate E5-P21 and their offspring. The procedure: Measurement of glyphosate in the blood. Water or 0.095% glyphosate was given to pregnant mice from E5 to P21, as described above. At weaning (P21), mothers and male offspring mice were deeply anesthetized with isoflurane and plasma was collected. The plasma samples were stored at −80° C. before assay. Measurement of glyphosate in the plasma was performed using LC/MS/MS at UC Davis.
The 40 μL of internal standard (2 μg/mL of glyphosate-2-^13C solution in methanol) and 40 μL of methanol were added to 20 μL of plasma. The spiked sample was vortexed for 5 minutes and then centrifuged at […] for another 5 minutes. The supernatants were transferred for the followed LC/MS/MS measurement, which uses Waters Acquity UPLC system (Waters, Milford, MA) interfaced with a QTRAP 6500+ mass spectrometer (Sciex, Redwood City, CA) using electrospray source. The separation was achieved on a Waters Acquity BEH C18 50×2.1 mm 1.7 μm column with mobile phases of water with 0.1% of formic acid as mobile phase A and acetonitrile with 0.1% of formic acid as mobile phase B. The gradient was shown in Table 10. All the parameters on the mass spectrometer were optimized with pure standards of glyphosate and glyphosate-2-^13C (purchased from Millipore Sigma, Burlington MA) under positive MRM mode.

Each structure is given as a SMILES string.

For `O=C(O)CNCP(=O)(O)O` [glyphosate], the “protein levels of sEH in the PFC, hippocampus, and striatum” value with sEH (juvenile offspring (P28) after maternal glyphosate exposure vs water) is on record as “significantly higher”. In addition, the “protein levels of sEH in the PFC and striatum of mothers” value in the series on sEH (mothers treated with glyphosate vs water-treated mice) is recorded as “significantly higher”. Further, the “PV-immunoreactivity in the prelimbic (PrL) of medial PFC” value with parvalbumin (PV) was “significantly lower”. Also, the “three-chamber social interaction test” value in the series with ddY mice is “social interaction deficits”. In addition, the “blood levels of glyphosate on P21 (weaning)” value in series [1] is reported as “could detect”.

Values taken from patent publication US12357598B2, “Treatment of neurodevelopmental disorders” (THE REGENTS OF THE UNIVERSITY OF CALIFORNIA, priority 2018, dated 2025).
